Results from ChEMBL document CHEMBL6153137, “Design, Synthesis, and Biological Evaluation of Novel Orally Available Covalent CDK12/13 Dual Inhibitors for the Treatment of Tumors” (J Med Chem, 2025).
In brackets after ≈: the same amount, converted by molar mass. Activity calls are given as the source filed them. No cut-off for these calls is given here.

Columns and labels:
[1] = Half life in male Sprague-Dawley rat at 10 mg/kg, po administered via gavage and measured on day 1; format: ADME, organism-based; conditions: in vivo, time 1 day
[2] = Half-life in Balb/c mouse xenografted with human MV4-11 cells at 30 mg/kg, po administered once daily via gavage; format: ADME, organism-based; conditions: in vivo
[3] = GSH reactivity assessed as half life to adduct formation at 0.1 uM by LC-MS/MS analysis; format: physicochemical
[4] = tested on: NAMALVA; assay: Antiproliferative activity against human NAMALWA cells assessed as reduction in cell viability incubated for 7 days by CellTiter-Glo reagent based luminescence analysis; format: functional; conditions: 168 h
[5] = tested on: SW-403; assay: Antiproliferative activity against human SW403 cells assessed as reduction in cell viability incubated for 7 days by CellTiter-Glo reagent based luminescence analysis; format: functional; conditions: SW-403, 168 h
[6] = tested on: NCI-H508; assay: Antiproliferative activity against human NCI-H508 cells assessed as reduction in cell viability incubated for 7 days by CellTiter-Glo reagent based luminescence analysis; format: functional; conditions: NCI-H508, 168 h
[7] = tested on: HCC1395; assay: Antiproliferative activity against human HCC1395 cells assessed as reduction in cell viability incubated for 7 days by CellTiter-Glo reagent based luminescence analysis; format: functional; conditions: HCC1395, 168 h
[8] = tested on: MDA-MB-231; assay: Antiproliferative activity against human MDA-MB-231 cells assessed as reduction in cell viability incubated for 7 days by CellTiter-Glo reagent based luminescence analysis; format: functional; conditions: MDA-MB-231, 168 h
[9] = biological target: CDK12/Cyclin K (Homo sapiens) (UniProt O75909+Q9NYV4); assay: Inhibition of N-terminal GST-tagged human recombinant CDK12/N-terminal FLAG and C-terminal 6X His-tagged Cyclin K expressed in HEP Sf9 cells using ATP as substrate at 2 uM measured after 60 mins by ADP-Glo reagent based luminescence assay
Chain of CDK12/Cyclin K (Homo sapiens) (O75909 whole entry, looked up): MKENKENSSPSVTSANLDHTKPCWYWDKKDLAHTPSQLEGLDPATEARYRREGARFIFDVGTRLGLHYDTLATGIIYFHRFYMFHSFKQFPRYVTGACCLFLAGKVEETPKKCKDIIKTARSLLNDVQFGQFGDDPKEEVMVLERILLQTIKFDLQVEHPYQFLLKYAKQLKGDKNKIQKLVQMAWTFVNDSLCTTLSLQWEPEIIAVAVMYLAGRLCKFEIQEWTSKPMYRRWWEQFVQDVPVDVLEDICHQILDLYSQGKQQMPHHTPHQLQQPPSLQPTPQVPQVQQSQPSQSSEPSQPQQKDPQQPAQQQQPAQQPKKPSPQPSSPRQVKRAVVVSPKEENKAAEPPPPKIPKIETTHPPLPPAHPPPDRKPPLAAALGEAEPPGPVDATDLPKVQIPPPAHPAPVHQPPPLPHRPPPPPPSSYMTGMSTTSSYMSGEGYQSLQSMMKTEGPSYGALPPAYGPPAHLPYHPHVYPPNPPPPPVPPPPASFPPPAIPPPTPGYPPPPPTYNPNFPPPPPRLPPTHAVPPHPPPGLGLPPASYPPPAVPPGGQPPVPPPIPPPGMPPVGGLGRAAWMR
Chain of CDK12/Cyclin K (Homo sapiens) (Q9NYV4 whole entry, looked up): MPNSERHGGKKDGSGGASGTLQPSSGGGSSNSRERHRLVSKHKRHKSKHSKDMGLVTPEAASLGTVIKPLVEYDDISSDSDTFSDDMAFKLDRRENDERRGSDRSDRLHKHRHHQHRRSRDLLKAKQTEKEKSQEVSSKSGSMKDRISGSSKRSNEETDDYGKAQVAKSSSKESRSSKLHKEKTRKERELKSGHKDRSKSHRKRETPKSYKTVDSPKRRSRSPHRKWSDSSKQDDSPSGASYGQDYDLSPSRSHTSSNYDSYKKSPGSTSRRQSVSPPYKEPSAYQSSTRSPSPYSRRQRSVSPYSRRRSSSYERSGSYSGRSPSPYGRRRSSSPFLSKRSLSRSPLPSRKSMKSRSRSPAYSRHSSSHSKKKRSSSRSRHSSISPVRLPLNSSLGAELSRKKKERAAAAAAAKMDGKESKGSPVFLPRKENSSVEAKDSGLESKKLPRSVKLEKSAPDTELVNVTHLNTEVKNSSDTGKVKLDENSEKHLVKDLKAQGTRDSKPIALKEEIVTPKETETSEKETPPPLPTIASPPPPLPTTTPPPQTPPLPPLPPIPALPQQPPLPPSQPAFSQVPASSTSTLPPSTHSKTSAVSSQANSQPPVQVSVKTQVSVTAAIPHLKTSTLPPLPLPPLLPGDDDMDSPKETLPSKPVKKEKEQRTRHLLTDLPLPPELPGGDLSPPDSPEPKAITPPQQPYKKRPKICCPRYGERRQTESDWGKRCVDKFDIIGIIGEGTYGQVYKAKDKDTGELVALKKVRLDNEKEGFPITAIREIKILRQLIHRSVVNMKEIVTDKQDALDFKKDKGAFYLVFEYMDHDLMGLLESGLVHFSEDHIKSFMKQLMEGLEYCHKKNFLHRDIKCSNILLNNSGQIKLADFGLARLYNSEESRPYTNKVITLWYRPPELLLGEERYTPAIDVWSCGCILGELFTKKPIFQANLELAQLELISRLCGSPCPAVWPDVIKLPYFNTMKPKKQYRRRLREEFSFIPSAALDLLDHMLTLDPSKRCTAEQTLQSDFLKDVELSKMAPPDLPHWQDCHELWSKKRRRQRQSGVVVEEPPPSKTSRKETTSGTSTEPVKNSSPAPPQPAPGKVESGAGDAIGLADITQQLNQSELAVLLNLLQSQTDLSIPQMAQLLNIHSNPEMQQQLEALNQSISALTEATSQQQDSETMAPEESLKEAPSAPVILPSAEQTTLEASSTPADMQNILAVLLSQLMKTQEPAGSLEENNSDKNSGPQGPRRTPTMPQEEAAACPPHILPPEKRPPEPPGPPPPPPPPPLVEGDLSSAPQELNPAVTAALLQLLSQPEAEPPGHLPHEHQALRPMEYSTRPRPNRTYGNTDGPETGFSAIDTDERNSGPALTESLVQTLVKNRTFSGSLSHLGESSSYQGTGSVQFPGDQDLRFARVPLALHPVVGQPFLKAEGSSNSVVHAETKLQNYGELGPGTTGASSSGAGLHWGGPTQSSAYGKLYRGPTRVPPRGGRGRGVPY

[10] = biological target: CDK6/cyclin D1 (Homo sapiens) (UniProt P24385+Q00534); assay: Inhibition of human recombinant N-terminal GST-tagged CDK6/N-terminal GST-tagged and C-terminal 6X His-tagged Cyclin D1 expressed in HEP Sf9 cells using ATP as substrate at 2 uM measured after 60 mins by ADP-Glo reagent based luminescence analysis
[11] = tested on: HEP Sf9; assay: Inhibition of human recombinant N-terminal GST-tagged CDK6/C-terminal 6X His-tagged Cyclin D3 S259A mutant expressed in HEP Sf9 cells using ATP as substrate at 2 uM measured after 60 mins by ADP-Glo reagent based luminescence analysis
[12] = biological target: CDK1/Cyclin A (Homo sapiens) (UniProt P06493+P20248); assay: Inhibition of human recombinant N-terminal GST-tagged CDK1/N-terminal GST-tagged and C-terminal 8X His-tagged Cyclin A2 expressed in HEP Sf9 cells using ATP as substrate at 2 uM measured after 60 mins by ADP-Glo reagent based luminescence analysis
Chain of CDK1/Cyclin A (Homo sapiens) (P06493 whole entry, looked up): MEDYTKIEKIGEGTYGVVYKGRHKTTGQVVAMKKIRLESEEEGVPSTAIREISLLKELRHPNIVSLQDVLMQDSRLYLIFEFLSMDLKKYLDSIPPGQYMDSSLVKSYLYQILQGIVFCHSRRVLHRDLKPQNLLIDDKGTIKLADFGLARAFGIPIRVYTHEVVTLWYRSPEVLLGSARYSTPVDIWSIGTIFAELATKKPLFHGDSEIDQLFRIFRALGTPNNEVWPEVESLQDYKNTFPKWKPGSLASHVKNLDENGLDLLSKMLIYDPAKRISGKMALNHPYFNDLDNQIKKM
Chain of CDK1/Cyclin A (Homo sapiens) (P20248 whole entry, looked up): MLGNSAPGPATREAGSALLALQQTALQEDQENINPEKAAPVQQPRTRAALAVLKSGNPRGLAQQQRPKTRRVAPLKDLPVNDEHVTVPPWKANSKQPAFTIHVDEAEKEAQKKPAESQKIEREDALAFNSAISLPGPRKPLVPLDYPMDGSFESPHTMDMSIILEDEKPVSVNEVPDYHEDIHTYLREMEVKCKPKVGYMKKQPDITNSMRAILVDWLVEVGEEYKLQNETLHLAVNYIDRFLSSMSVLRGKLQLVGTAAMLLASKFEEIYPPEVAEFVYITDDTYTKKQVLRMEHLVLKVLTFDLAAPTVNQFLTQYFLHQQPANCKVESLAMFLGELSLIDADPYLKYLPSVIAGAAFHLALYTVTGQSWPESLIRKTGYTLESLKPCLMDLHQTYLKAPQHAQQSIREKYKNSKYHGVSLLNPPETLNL

[13] = Kinetic solubility of the compound in phosphate buffer at pH 7.4 measured after 24 hrs by HPLC-UV analysis; format: physicochemical; conditions: read-out: Kinetic_solubility
[14] = Protein binding in human plasma assessed as free fraction at 400 uM incubated for 4 hrs by equilibrium dialysis method based LC-MS/MS analysis; format: ADME, cell-free
[15] = biological target: Voltage-gated inwardly rectifying potassium channel KCNH2 (Homo sapiens, UniProt Q12809); assay: Inhibition of hERG expressed in CHO cells assessed as inhibition of channel current measured at holding potential of -80 mV by whole cell patch clamp analysis; format: toxicity, cell-based
Chain of Voltage-gated inwardly rectifying potassium channel KCNH2 (Q12809 whole entry): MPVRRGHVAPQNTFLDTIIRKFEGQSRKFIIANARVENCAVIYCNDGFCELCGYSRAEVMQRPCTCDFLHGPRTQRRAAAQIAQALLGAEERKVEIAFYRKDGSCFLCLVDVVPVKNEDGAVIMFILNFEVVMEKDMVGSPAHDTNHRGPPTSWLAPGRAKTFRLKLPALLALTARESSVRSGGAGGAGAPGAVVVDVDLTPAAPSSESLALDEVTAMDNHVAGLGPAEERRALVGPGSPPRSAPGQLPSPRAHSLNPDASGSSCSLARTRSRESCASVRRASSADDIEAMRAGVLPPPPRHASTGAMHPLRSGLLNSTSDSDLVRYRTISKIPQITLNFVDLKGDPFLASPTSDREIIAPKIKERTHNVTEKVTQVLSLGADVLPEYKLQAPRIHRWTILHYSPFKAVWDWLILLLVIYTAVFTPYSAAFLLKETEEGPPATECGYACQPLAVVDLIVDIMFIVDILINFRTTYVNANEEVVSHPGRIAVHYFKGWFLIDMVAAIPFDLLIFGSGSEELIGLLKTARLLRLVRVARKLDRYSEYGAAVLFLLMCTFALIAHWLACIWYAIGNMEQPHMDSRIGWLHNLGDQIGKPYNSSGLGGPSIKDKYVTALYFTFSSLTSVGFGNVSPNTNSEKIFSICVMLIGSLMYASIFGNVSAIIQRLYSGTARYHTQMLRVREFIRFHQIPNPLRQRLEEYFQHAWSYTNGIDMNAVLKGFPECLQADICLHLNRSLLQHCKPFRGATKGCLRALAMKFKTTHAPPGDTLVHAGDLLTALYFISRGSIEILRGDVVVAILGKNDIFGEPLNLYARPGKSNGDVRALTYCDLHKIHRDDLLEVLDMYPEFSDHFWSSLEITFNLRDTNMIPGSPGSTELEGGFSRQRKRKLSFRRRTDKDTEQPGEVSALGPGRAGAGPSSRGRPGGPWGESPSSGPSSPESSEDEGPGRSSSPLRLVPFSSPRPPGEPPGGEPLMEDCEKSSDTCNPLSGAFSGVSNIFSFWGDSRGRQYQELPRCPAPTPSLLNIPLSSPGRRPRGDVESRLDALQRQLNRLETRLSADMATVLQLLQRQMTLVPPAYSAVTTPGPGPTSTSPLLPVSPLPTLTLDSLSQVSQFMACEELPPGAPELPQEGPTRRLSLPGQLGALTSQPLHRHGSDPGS

[16] = AUC in Balb/c mouse xenografted with human SUM149PT cells at 30 mg/kg, po administered once daily via gavage; format: ADME, organism-based; conditions: in vivo
[17] = tested on: Mus musculus; assay: In vivo inhibition of CDK7 in Balb/c mouse xenografted with human SUM149PT cells assessed as reduction in phosphorylation of Ser5 on RNA Pol II at 15 to 30 mg/kg, po administered once daily via gavage and measured at 4 hrs post-last drug dosage by western blot analysis; format: functional, organism-based; conditions: dose 15-30 mg/kg
[18] = tested on: Mus musculus; assay: In vivo inhibition of CDK12/13 in Balb/c mouse xenografted with human SUM149PT cells assessed as reduction in BRCA1 gene expression at 15 to 30 mg/kg, po administered once daily via gavage and measured at 4 hrs post-last drug dosage by qPCR analysis; format: functional, organism-based; conditions: dose 15-30 mg/kg
[19] = Cmax in Sprague-Dawley rat at 15 mg/kg, po measured for 24 hrs by LC-MS/MS analysis; format: ADME, organism-based; conditions: in vivo
[20] = Half life in Sprague-Dawley rat at 50 mg/kg, po measured for 24 hrs by LC-MS/MS analysis; format: ADME, organism-based; conditions: in vivo
[21] = Oral bioavailability in Sprague-Dawley rat at 5 mg/kg measured for 24 hrs by LC-MS/MS analysis; format: ADME, organism-based; conditions: in vivo
[22] = Toxicity against male Sprague-Dawley rat assessed as effect on monocytes level at 10 to 40 mg/kg, po administered once daily via gavage for 28 days and measured on day 29; format: organism-based; conditions: in vivo, 696 h, dose 10-40 mg/kg, time 29 day
[23] = Toxicity against male Sprague-Dawley rat assessed as effect on hemoglobin level at 10 to 40 mg/kg, po administered once daily via gavage for 28 days and measured on day 29; format: organism-based; conditions: in vivo, 696 h, dose 10-40 mg/kg, time 29 day
[24] = Toxicity against female Sprague-Dawley rat assessed as effect on red blood cells level at 7.5 to 30 mg/kg, po administered once daily via gavage for 28 days and measured on day 29; format: organism-based; conditions: in vivo, 696 h, dose 7.5-30 mg/kg, time 29 day
[25] = Toxicity against female Sprague-Dawley rat assessed as effect on hemoglobin level at 7.5 to 30 mg/kg, po administered once daily via gavage for 28 days and measured on day 29; format: organism-based; conditions: in vivo, 696 h, dose 7.5-30 mg/kg, time 29 day
[26] = Toxicity against female Sprague-Dawley rat assessed as increase in neutrophils content at 7.5 to 30 mg/kg, po administered once daily via gavage for 28 days and measured on day 29; format: organism-based; conditions: in vivo, 696 h, dose 7.5-30 mg/kg, time 29 day
[27] = Toxicity against male Sprague-Dawley rat assessed as effect on blood urea nitrogen level at 10 to 40 mg/kg, po administered once daily via gavage for 28 days and measured on day 29; format: organism-based; conditions: in vivo, 696 h, dose 10-40 mg/kg, time 29 day
[28] = Toxicity against male Sprague-Dawley rat assessed as effect on phosphorus level in blood at 10 to 40 mg/kg, po administered once daily via gavage for 28 days and measured on day 29; format: organism-based; conditions: in vivo, 696 h, dose 10-40 mg/kg, time 29 day
[29] = Half life in female Sprague-Dawley rat at 30 mg/kg, po administered via gavage and measured on day 1; format: ADME, organism-based; conditions: in vivo, time 1 day
[30] = Half life in male Sprague-Dawley rat at 10 mg/kg, po administered once daily via gavage for 28 days; format: ADME, organism-based; conditions: in vivo, time 28 day
[31] = Cmax in female Sprague-Dawley rat at 15 mg/kg, po administered via gavage and measured on day 1; format: ADME, organism-based; conditions: in vivo, time 1 day
[32] = AUC(0 to t) in male Sprague-Dawley rat at 20 mg/kg, po administered via gavage and measured on day 1; format: ADME, organism-based; conditions: in vivo, 24 h, time 1 day
[33] = AUC(0 to t) in male Sprague-Dawley rat at 40 mg/kg, po administered via gavage and measured on day 1; format: ADME, organism-based; conditions: in vivo, 24 h, time 1 day
[34] = Toxicity against male Sprague-Dawley rat assessed as body weight loss at 40 mg/kg, po administered once daily via gavage for 28 days and measured twice a week; format: organism-based; conditions: in vivo, 672 h, time 28 day

SMILES: C=CC(=O)N1CCc2c(ncnc2N2CC[C@@H](Nc3ncc(Cl)c(OC)n3)C2)C1
- half-life [1]: 3.2 h
- half-life [2]: 1.17 h
- t1/2 [3]: 1.48 h
- IC50 [4]: 98 nM
- IC50 [5]: 135 nM
- IC50 [6]: 87 nM
- IC50 [7]: 69 nM
- IC50 [8]: 58 nM
- inhibition [9]: 97%
- inhibition [10]: 56%
- inhibition [11]: 23%
- inhibition [12]: 10%
- solubility kinetic at 24 h [13]: 59.4 µg/mL (≈ 143 µM)
- fraction unbound at 4 h, 400 µM [14]: 0.127
- IC50 [15]: > 30000 nM
- AUC [16]: 2690 ng·h/mL
- inhibition [17]: inactive
- inhibition [18]: Active
- Cmax [19]: 797 ng/mL
- half-life [20]: 6.79 h
- bioavailability [21]: 35.7%
- Activity [22]: Non-toxic
- Activity [23]: Non-toxic
- Activity [24]: Non-toxic
- Activity [25]: Non-toxic
- Activity [26]: Toxic
- Activity [27]: Non-toxic
- Activity [28]: Non-toxic
- half-life [29]: 4 h
- half-life [30]: 3.5 h
- Cmax [31]: 1280 ng/mL
- AUCt [32]: 2550 ng·h/mL
- AUCt [33]: 7120 ng·h/mL
- Activity [34]: Toxic
